Paper PMC12567082, “Silver(I) Complexes Bearing S-Alkyl Thiosalicylic Acid Derivatives: DNA/BSA Binding and Antitumor Activity In Vitro and In Vivo” (Pharmaceutics, 2025)

Tests used:
human lung cancer (A549) = assay: MTT assay A549; format: cell-based
Method: (§1) Mouse breast cancer (4T1), human breast cancer (MDA-MB-468), mouse colon cancer (CT26), human colon cancer (HCT-116), mouse lung cancer (LLC1), human lung cancer (A549), mouse mesenchymal stem cells (mMSC), and human fibroblast cell lines (MRC-5) were used in this study and were consistently cultured in complete Dulbecco’s Modified Eagle Medium (DMEM) (Sigma-Aldrich, St. Louis, MO, USA) in incubator (5% CO2) under standard conditions. Complete DMEM was Dulbecco’s Modified Eagle Medium supplemented with 10% fetal bovine serum (FBS), 1 mmol/L penicillin–streptomycin, 1 mmol/L mixed nonessential amino acids, and 2 mmol/L L-glutamine (Sigma-Aldrich, St. Louis, MO, USA). All cancer cell lines and MRC-5 cell line were obtained from American Type Culture Collection (ATCC, Manassas, VA, USA), but mMSC was manufactured by Gibco (Middlesex County, MA, USA).
(§2) In 96-well microplates, we seeded cancer and non-cancer cells, more exactly 5 × 10^3 cells per well in 100 μL of complete DMEM (Sigma-Aldrich, St. Louis, MO, USA). […] Tested concentration range for all metal-based substances was 3.9–500 μM. After incubation with MTT solution (5 mg/mL; pH 7.2) for 4 h, optical density was determined using Zenyth 3100 microplate multimode detector (Salzburg, Austria). All experiments were performed three times, each in triplicate, and the IC50 values as well as selectivity indexes (IC50 for mMSC or MRC-5/IC50 for mouse or human cancer cells) were calculated.

[1] = system: Mouse breast cancer (4T1); assay: MTT assay 4T1; format: cell-based
Method: as §1, §2

[2] = system: mouse colon cancer (CT26); assay: MTT assay CT26; format: cell-based
Method: as §1, §2

[3] = system: human breast cancer (MDA-MB-468); assay: MTT assay MDA-MB-468; format: cell-based
Method: as §1, §2

CT-DNA [4] = assay: EB–CT-DNA fluorescence quenching; format: binding, calf; conditions: EB–CT-DNA 8.52 × 10^−5 M, PBS pH 7.4
Method: All samples were prepared in phosphate-buffered saline (PBS, pH 7.4). Stern–Volmer Equation (2) was used to interpret the fluorescence quenching data.

CT-DNA [5] = assay: UV-Vis absorption titration with CT-DNA; format: binding, calf; conditions: ΔG = −RT lnKb
Method: All DNA-binding studies were conducted in 0.01 M phosphate-buffered saline (PBS, pH 7.40) at 25 °C. […] To eliminate absorbance from CT-DNA, identical amounts of DNA were added to both the test and reference solutions prior to spectral recording.
Intrinsic binding constants (Kb) were calculated using the equation to determine the DNA-binding affinities of the complexes (1):[DNA]/(εa − εf) = [DNA]/(εb − εf) + 1 [Kb(εb − εf)](1)
[DNA] represents the concentration of DNA; apparent extinction coefficient, εa, was calculated as the ratio of the observed absorbance to the concentration of the complex (Aobs/[complex]); and εb and εf correspond to the extinction coefficients of the complex in the fully bound and free forms, respectively. Kb was determined from the ratio of the slope to the intercept obtained from the corresponding linear plots.

BSA = biological target: T1, BSA (Bos taurus, UniProt P02769); assay: BSA tryptophan fluorescence quenching; format: binding, bovine
T1 construct: purchased Sigma-Aldrich
Method: The protein binding study was carried out using tryptophan fluorescence quenching experiments with BSA. […] Fluorescence emission spectra were recorded between 300 and 500 nm, with excitation at 295 nm.
The quenching constant Ksv was determined based on the Stern–Volmer relationship, as described by Equation (3):I0/I = 1 + kqτ0[Q] = 1 + Ksv[Q](3)
In this equation, I0 and I refer to the fluorescence intensities of BSA measured without and with the quencher (complex), τ0 represents the average fluorescence lifetime of free BSA (∼10^−8 s), and [Q] indicates the quencher concentration.
Parameters such as association binding constant (K) and the number of binding sites per albumin (n) were obtained from Scatchard Equation (4):(ΔI/I0)/[Q] = nK − KΔI/I0(4)
To minimize inner filter, both intensities of fluorescence originating from excitation and emission light absorption and re-absorption were corrected by employing Equation (5); Icor and Iobs are the corrected and observed fluorescence intensities, respectively, and Aex and Aem represent the absorbance of the metal complex at the excitation and emission wavelengths, respectively.Icor = Iobs · […]^(Aex + Aem)/2(5)

[6] = system: human fibroblast cell lines (MRC-5); assay: MTT assay MRC-5; format: cell-based
Method: as §1, §2

mouse lung cancer (LLC1) = assay: MTT assay LLC1; format: cell-based
Method: as §1, §2

CT-DNA [7] = system: CT-DNA; set-up: method as in PMID 25350363; conditions: cited from earlier work
[8] = system: human colon cancer (HCT-116); assay: MTT assay HCT116; format: cell-based
Method: as §1, §2

BALB/C female mice = assay: In vivo toxicity (serum biochemistry, liver and kidney histology); conditions: 6 mg/kg, H&E, day 30
Method: (§3) Ethics Committee of the Faculty of Medical Sciences of the University of Kragujevac, Serbia, approved all experiments (01-5301/11). ARRIVE guidelines and EU Directive 2010/63/EU for animal experiments were followed. Experimental animals, BALB/C female mice (8–10 weeks old), were housed under standard conditions (temperature-controlled environment, a 12 h light–dark cycle, fed ad libitum, and observed daily) throughout whole duration of experiment. Animals were inoculated with 4T1 cells (3 × 10^4) into the fourth mammary fat pad as previously described. Animals were randomly assigned to experimental or control groups, and after palpable tumors were detected, the pharmacological treatments were started. Female BALB/C mice intraperitoneally received either C3 (3 mg/kg), C3 (6 mg/kg), CDDP (6 mg/kg), or vehicle in distilled water with 0.05% DMSO (Sigma-Aldrich, St. Louis, MO, USA) (untreated group) in five single doses every third day (8 animals per group). Using electronic calipers (Moore and Wright, Sheffield, UK), the sizes of primary 4T1 mammary tumors were morphometrically evaluated. On the 30th day of experiment, animals were sacrificed, blood was collected (for determination of serum levels of ALT, AST, urea, and creatinine), and tissue sections (liver and kidney) were stained with H&E for further analysis. Liver or kidney sections were analyzed by two observers, and the injury levels were determined as previously reported.

[9] = system: mouse mesenchymal stem cells (mMSC); assay: MTT assay mMSC; format: cell-based; conditions: 24 h
Method: as §1, §2

4T1 mammary tumors = assay: Breast cancer development in vivo (orthotopic 4T1); set-up: species or system BALB/C female mice; conditions: 6 mg/kg i.p., five single doses every third day, after day 18
Method: as §3

T1 sequence (P02769 25-607): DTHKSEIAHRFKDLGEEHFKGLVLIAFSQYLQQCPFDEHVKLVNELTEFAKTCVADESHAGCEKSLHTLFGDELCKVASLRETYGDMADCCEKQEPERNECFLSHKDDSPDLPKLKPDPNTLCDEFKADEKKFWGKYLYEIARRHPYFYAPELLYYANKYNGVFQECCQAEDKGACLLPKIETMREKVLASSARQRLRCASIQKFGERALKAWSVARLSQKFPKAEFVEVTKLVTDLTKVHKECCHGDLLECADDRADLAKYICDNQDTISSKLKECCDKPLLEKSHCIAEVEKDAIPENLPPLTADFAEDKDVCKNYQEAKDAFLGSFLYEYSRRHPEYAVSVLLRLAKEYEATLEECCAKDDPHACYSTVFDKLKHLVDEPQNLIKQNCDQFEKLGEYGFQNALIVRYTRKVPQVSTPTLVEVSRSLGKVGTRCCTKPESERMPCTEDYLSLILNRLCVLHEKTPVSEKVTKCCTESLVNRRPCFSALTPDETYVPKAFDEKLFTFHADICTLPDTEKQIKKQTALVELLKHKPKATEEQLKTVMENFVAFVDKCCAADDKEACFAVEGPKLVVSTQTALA

CCCCSc1ccccc1C(=O)O [L4, S-butyl derivative of thiosalicylic]
IC50 (human lung cancer (A549); A549, 24 h): 494.9 ± 3.58 µM
IC50 (human lung cancer (A549); A549, 48 h): 490 ± 22 µM
IC50 ([1]; 4T1, 24 h): 407 ± 35.1 µM
IC50 ([1]; 4T1, 48 h): 417 ± 61.4 µM
IC50 ([2]; CT26, 48 h): 368 ± 58.3 µM
IC50 ([3]; MDA-MB-468, 48 h): 408 ± 12.7 µM

[Ag2(S-Methyl-Thiosal)2] [C1]
IC50 (human lung cancer (A549); A549, 24 h): 58.3 ± 1.91 µM
Selectivity Index (IC50 mMSC or MRC-5/ IC50 Cancer Cell) (human lung cancer (A549); A549, 24 h): 0.79
IC50 (human lung cancer (A549); A549, 48 h): 48.6 ± 1.06 µM
Selectivity Index (IC50 mMSC or MRC-5/ IC50 Cancer Cell) (human lung cancer (A549); A549, 48 h): 1.10
Ksv EB (Stern–Volmer constant) (CT-DNA [4]): (6.0 ± 0.1) × 10^3 M^−1
IC50 ([1]; 4T1, 48 h): 4 ± 0.95 µM
ΔG (Gibbs free energy) (CT-DNA [5]): -6.64 kcal/mol
kq (quenching rate constant) (BSA; BSA 2 µM): (1.7 ± 0.1) × 10^13 M^−1 s^−1
Ksv (Stern–Volmer constant) (BSA; BSA 2 µM, λex 295 nm): (1.7 ± 0.1) × 10^5 M^−1
K (binding constant) (BSA; Scatchard equation): (1.7 ± 0.1) × 10^5 M^−1
n (number of binding sites) (BSA; Scatchard equation): 0.8
IC50 ([6]; MRC-5, 24 h): 46.3 ± 1.52 µM
IC50 ([6]; MRC-5, 48 h): 53.2 ± 1.27 µM
IC50 ([3]; MDA-MB-468, 24 h): 4.19 ± 0.98 µM
Selectivity Index (IC50 mMSC or MRC-5/ IC50 Cancer Cell) ([3]; MDA-MB-468, 24 h): 11.05
IC50 ([3]; MDA-MB-468, 48 h): 4.37 ± 0.41 µM
Selectivity Index (IC50 mMSC or MRC-5/ IC50 Cancer Cell) ([3]; MDA-MB-468, 48 h): 12.18
IC50 (mouse lung cancer (LLC1); LLC1, 24 h): 39.8 ± 1.07 µM
IC50 (mouse lung cancer (LLC1); LLC1, 48 h): 32 ± 1.47 µM

CSc1ccccc1C(=O)O [L1, S-methyl derivative of thiosalicylic acid]
IC50 ([1]; 4T1, 48 h): 443 ± 30.5 µM
IC50 ([6]; MRC-5, 48 h): 488 ± 41.6 µM

CCCSc1ccccc1C(=O)O [L3, S-propyl derivative of thiosalicylic acid]
IC50 (human lung cancer (A549); A549, 48 h): 500 ± 47.3 µM
IC50 ([1]; 4T1, 48 h): 500 ± 30.5 µM

CCSc1ccccc1C(=O)O [L2, S-ethyl derivative of thiosalicylic]
IC50 ([1]; 4T1, 48 h): 500 ± 7.6 µM
IC50 ([2]; CT26, 48 h): 465 ± 39.5 µM
IC50 ([6]; MRC-5, 48 h): 384 ± 20.5 µM

CC[n+]1c(-c2ccccc2)c2cc(N)ccc2c2ccc(N)cc21.[Br-] [ethidium bromide, 3,8-diamino-5-ethyl-6-phenylphenanthridinium bromide]
Kb (CT-DNA [7]): (1.23 ± 0.07) × 10^5 M^−1

[NH2][Pt]([NH2])([Cl])[Cl] [CDDP, cisplatin, reference compound]
IC50 (human lung cancer (A549); A549, 24 h): 23.2 ± 1.77 µM
Selectivity Index (IC50 mMSC or MRC-5/ IC50 Cancer Cell) (human lung cancer (A549); A549, 24 h): 1.74
IC50 (human lung cancer (A549); A549, 48 h): 14 ± 1.44 µM
Selectivity Index (IC50 mMSC or MRC-5/ IC50 Cancer Cell) (human lung cancer (A549); A549, 48 h): 1.95
IC50 ([1]; 4T1, 24 h): 12 ± 1.98 µM
Selectivity Index (IC50 mMSC or MRC-5/ IC50 Cancer Cell) ([1]; 4T1, 24 h): 1.43
IC50 ([1]; 4T1, 48 h): 5.17 ± 0.98 µM
IC50 ([8]; HCT 116, 24 h): 63.3 ± 3.21 µM
IC50 ([8]; HCT 116, 48 h): 15.8 ± 1.28 µM
Selectivity Index (IC50 mMSC or MRC-5/ IC50 Cancer Cell) ([8]; HCT-116, 24 h): 0.64
Selectivity Index (IC50 mMSC or MRC-5/ IC50 Cancer Cell) ([8]; HCT-116, 48 h): 1.73
IC50 ([2]; CT26, 24 h): 16.9 ± 1.42 µM
Selectivity Index (IC50 mMSC or MRC-5/ IC50 Cancer Cell) ([2]; CT26, 24 h): 1.01
liver changes (histopathology) (BALB/C female mice): piecemeal necrosis, focal lytic necrosis, and portal inflammation
IC50 ([6]; MRC-5, 24 h): 40.5 ± 0.57 µM
IC50 ([6]; MRC-5, 48 h): 27.4 ± 0.72 µM
IC50 [9]: 17.1 ± 1.15 µM
IC50 ([3]; MDA-MB-468, 24 h): 4.06 ± 0.97 µM
Selectivity Index (IC50 mMSC or MRC-5/ IC50 Cancer Cell) ([3]; MDA-MB-468, 24 h): 9.98
tumor growth compared to the untreated group (4T1 mammary tumors): significantly slower
IC50 (mouse lung cancer (LLC1); LLC1, 24 h): 21.8 ± 1.11 µM
Selectivity Index (IC50 mMSC or MRC-5/ IC50 Cancer Cell) (mouse lung cancer (LLC1); LLC1, 24 h): 0.79
